# Oligonucleotides are given in HELM: sugar(base)linkage, 5' to 3'; d 2'-deoxyribose, r ribose, m 2'-O-methylribose, p phosphate. ss, as = sense and antisense strand
# Molecular target: Mmp7 (rat)
# Experiment: reporter assay of Huesken 2005
# Details: siRNA
# Note: test concentration or dose not given here.
row,Substance,normalised inhibition (eCFP-eYFP dual reporter) [%]
1,RNA1{r(C)p.r(U)p.r(A)p.r(C)p.r(C)p.r(U)p.r(A)p.r(U)p.r(C)p.r(A)p.r(A)p.r(G)p.r(G)p.r(A)p.r(G)p.r(A)p.r(U)p.r(C)p.r(A)p.d(T)p.d(T)}|RNA2{r(U)p.r(G)p.r(A)p.r(U)p.r(C)p.r(U)p.r(C)p.r(C)p.r(U)p.r(U)p.r(G)p.r(A)p.r(U)p.r(A)p.r(G)p.r(G)p.r(U)p.r(A)p.r(G)p.d(G)p.d(G)}$$$RNA1{StrandType:ss}|RNA2{StrandType:as}$,114
2,RNA1{r(C)p.r(C)p.r(A)p.r(G)p.r(G)p.r(U)p.r(G)p.r(U)p.r(G)p.r(G)p.r(A)p.r(G)p.r(U)p.r(G)p.r(C)p.r(C)p.r(A)p.r(G)p.r(A)p.d(T)p.d(T)}|RNA2{r(U)p.r(C)p.r(U)p.r(G)p.r(G)p.r(C)p.r(A)p.r(C)p.r(U)p.r(C)p.r(C)p.r(A)p.r(C)p.r(A)p.r(C)p.r(C)p.r(U)p.r(G)p.r(G)p.d(G)p.d(C)}$$$RNA1{StrandType:ss}|RNA2{StrandType:as}$,85.6
3,RNA1{r(U)p.r(G)p.r(G)p.r(G)p.r(A)p.r(A)p.r(C)p.r(A)p.r(G)p.r(G)p.r(C)p.r(G)p.r(C)p.r(A)p.r(G)p.r(A)p.r(A)p.r(U)p.r(U)p.d(T)p.d(T)}|RNA2{r(A)p.r(A)p.r(U)p.r(U)p.r(C)p.r(U)p.r(G)p.r(C)p.r(G)p.r(C)p.r(C)p.r(U)p.r(G)p.r(U)p.r(U)p.r(C)p.r(C)p.r(C)p.r(A)p.d(C)p.d(T)}$$$RNA1{StrandType:ss}|RNA2{StrandType:as}$,46.8
4,RNA1{r(C)p.r(C)p.r(A)p.r(G)p.r(G)p.r(A)p.r(A)p.r(G)p.r(C)p.r(C)p.r(G)p.r(G)p.r(A)p.r(G)p.r(A)p.r(A)p.r(G)p.r(U)p.r(G)p.d(T)p.d(T)}|RNA2{r(C)p.r(A)p.r(C)p.r(U)p.r(U)p.r(C)p.r(U)p.r(C)p.r(C)p.r(G)p.r(G)p.r(C)p.r(U)p.r(U)p.r(C)p.r(C)p.r(U)p.r(G)p.r(G)p.d(G)p.d(A)}$$$RNA1{StrandType:ss}|RNA2{StrandType:as}$,72.2
5,RNA1{r(U)p.r(C)p.r(A)p.r(U)p.r(U)p.r(C)p.r(A)p.r(G)p.r(A)p.r(A)p.r(G)p.r(A)p.r(C)p.r(U)p.r(U)p.r(C)p.r(A)p.r(G)p.r(U)p.d(T)p.d(T)}|RNA2{r(A)p.r(C)p.r(U)p.r(G)p.r(A)p.r(A)p.r(G)p.r(U)p.r(C)p.r(U)p.r(U)p.r(C)p.r(U)p.r(G)p.r(A)p.r(A)p.r(U)p.r(G)p.r(A)p.d(T)p.d(C)}$$$RNA1{StrandType:ss}|RNA2{StrandType:as}$,54.7
6,RNA1{r(C)p.r(A)p.r(U)p.r(G)p.r(G)p.r(A)p.r(G)p.r(A)p.r(U)p.r(A)p.r(A)p.r(U)p.r(G)p.r(C)p.r(A)p.r(G)p.r(A)p.r(A)p.r(G)p.d(T)p.d(T)}|RNA2{r(C)p.r(U)p.r(U)p.r(C)p.r(U)p.r(G)p.r(C)p.r(A)p.r(U)p.r(U)p.r(A)p.r(U)p.r(C)p.r(U)p.r(C)p.r(C)p.r(A)p.r(U)p.r(G)p.d(A)p.d(C)}$$$RNA1{StrandType:ss}|RNA2{StrandType:as}$,97.5
7,RNA1{r(G)p.r(U)p.r(C)p.r(A)p.r(U)p.r(G)p.r(G)p.r(A)p.r(G)p.r(A)p.r(U)p.r(A)p.r(A)p.r(U)p.r(G)p.r(C)p.r(A)p.r(G)p.r(A)p.d(T)p.d(T)}|RNA2{r(U)p.r(C)p.r(U)p.r(G)p.r(C)p.r(A)p.r(U)p.r(U)p.r(A)p.r(U)p.r(C)p.r(U)p.r(C)p.r(C)p.r(A)p.r(U)p.r(G)p.r(A)p.r(C)p.d(A)p.d(C)}$$$RNA1{StrandType:ss}|RNA2{StrandType:as}$,115
8,RNA1{r(G)p.r(G)p.r(C)p.r(C)p.r(A)p.r(C)p.r(U)p.r(C)p.r(U)p.r(C)p.r(U)p.r(G)p.r(G)p.r(G)p.r(U)p.r(C)p.r(U)p.r(G)p.r(G)p.d(T)p.d(T)}|RNA2{r(C)p.r(C)p.r(A)p.r(G)p.r(A)p.r(C)p.r(C)p.r(C)p.r(A)p.r(G)p.r(A)p.r(G)p.r(A)p.r(G)p.r(U)p.r(G)p.r(G)p.r(C)p.r(C)p.d(A)p.d(A)}$$$RNA1{StrandType:ss}|RNA2{StrandType:as}$,41.4

# From the OligoGym collection
